One data set addresses rCYP2D6 (Homo sapiens, UniProt P10635). In words: luminogenic P450-Glo CYP450 inhibition assay, rCYP2D6. The settings on record: three independent experiments. The source says: The luminescent cytochrome P450 assay was used to determine CYP450-mediated (CYP1A2, 2C9, 2C19, 2D6, and 3A4) metabolism of atractylodin and β-eudesmol. The assay consisted of each recombinant human CYP450 (rCYP450), control membranes lacking P450 activity, a luminogenic CYP450 substrate (luciferin-ME substrate for rCYP1A2, luciferin-H substrate for rCYP2C9, luciferin-H EGE substrate for rCYP2C19, luciferin-ME EGE substrate for rCYP2D6, and luciferin-IPA substrate for rCYP3A4), KPO4 buffer, luciferin free water, NADPH regeneration system, and a luciferin detection reagent. The rCYP450 enzymes were generated from a baculovirus-infected insect cell expression system. The concentrations of the recombinant CYPs used were 0.5 (rCYP1A2 and rCYP2C9), 0.25 (rCYP2C19 and rCYP2D6) or 0.2 (rCYP3A4) pmol (0.5μL) per reaction. […] A luciferin product was produced after adding 25 µL of NADPH Regeneration System (solution A, solution B, and luciferin-free water) and incubated at 37 °C for 10 (rCYP1A2 and rCYP3A4), 20 (rCYP2C19 and rCYP2C9) or 30 (rCYP2D6) minutes. The reaction was stopped and converted to a luminescent signal after adding Luciferin Detection Reagent (50 µL) and incubated at 25 °C for 20 min. The luminescence signals obtained were determined using a Varioskan® Flash microplate reader (Waltham, MA, USA). The magnitude of luminescence in all of the samples represented CYP450 activity. […] All stock solutions were diluted with luciferin-free water until the final concentration of organic solvent was less than 0.25% (v/v) of the total reaction. The concentration range of atractylodin and β-eudesmol used were 2.74–686 µM and 2.25–562 µM, respectively. […] The concentration that inhibited the activity of each rCYP450 by 50% (IC50) was calculated using Calcusyn software (Cambridge, UK). Data are reported as the median (range) of the three independent experiments.

Another data set deals with mCYP3A11. In words: ex vivo mCYP3A11 protein expression in mouse liver microsomes (western blot). The settings on record: daily oral 100 mg/kg body weight. The source says: Eight-week-old male ICR (Imprinting Control Region) mice weighing 35–40 g were used to investigate the modulatory effects of atractylodin and β-eudesmol on mCYP1A2 and mCYP3A11. The study protocol was approved by the Ethics Committee for Animal Research at Thammasat University (protocol number 016/2020). All animals were obtained from Nomura Siam International Co., Ltd. (Bangkok, Thailand). The animals were acclimatized for one week before the experiments. A total of 36 mice were allocated to three groups (i) control group (3 mice), (ii) atractylodin-treated group, and (iii) β-eudesmol-treated group. For atractylodin and β-eudesmol-treated groups, animals were fed with 100 mg/kg body weight of each compound for 1, 7, 14, and 21 (3 mice for each dose). Experiments were performed under the guidelines for the care and use of laboratory animals in a controlled environment of 12 h dark/light cycle, temperature 22 ± 2 °C, and relative humidity 30–70% at the Thammasat University Animal Center. Animals were observed daily for changes in signs and symptoms by a veterinarian. Mice were allowed access to the food pellets and water ad libitum.
Mouse liver samples were cut into small pieces, and the liver microsomes were prepared as described previously. The concentrations of proteins in the microsomes were determined using Pierce™ BCA Protein Assay Kit. mCYP1A2 and mCYP3A11 activities were evaluated based on phenacetin O-deethylation and nifedipine oxidation activities, respectively. The incubation mixture of 500 µL consisted of microsomes, substrate ([…]), and NADPH. […] The final organic solvent concentration in the incubation mixture was not higher than 1%. Each experiment was repeated three times (duplicated each). Determination of the concentrations of metabolites of mCYP1A2 (paracetamol) and mCYP3A11 (dehydronifedipine) in the reaction was performed using HPLC Agilent 1260 Infinity II with mobile gradient phase between methanol and distilled water at an initial ratio of 20:80 (v:v) and UV detection (240 nm). Calibration curves for both CYP450 activities were created over a concentration range of 1–50 µM. Oxidized nifedipine concentrations were determined using HPLC as follows: UV detection at 235 nm with an isocratic mobile phase consisting of methanol and distilled water (70:30, v:v). […] In each analytical batch, quality control (QC) samples were run in duplicate at low, medium, and high concentrations. Acceptance criteria were four out of six QC analyses falling within 100 ± 15% of the nominal values.
The microsomal protein concentration for both mCYP1A2 and […] was 25 μg protein per lane. Proteins were denatured by combining equal volumes of liver microsomes with sample buffer (1:19 (v:v) of 2-mercaptoethanol and 2x Laemmle buffer) and heating at 100 °C for 5 min. Proteins were separated using 12% SDS-PAGE according to their size characteristics before being migrated to nitrocellulose blotting membranes.

The next data set has as its system hCYP1A2. The arrangement: method as in PMID 35139770. The settings on record: ligand-binding difference spectroscopy; cited from earlier work.
Another data set deals with hCYP3A4. The arrangement: method as in PMID 35139770. The settings on record: ligand-binding difference spectroscopy; cited from earlier work.
A further data set concerns hCYP2C9. On the set-up: method as in PMID 35139770. The settings on record: ligand-binding difference spectroscopy; cited from earlier work.
For another data set, the system named is hCYP2C19. On the set-up: method as in PMID 35139770. The settings on record: ligand-binding difference spectroscopy; cited from earlier work.
The test system of data set [1] is all rCYP450s (rCYP1A2, rCYP2C9, rCYP2C19, rCYP2D6, rCYP3A4). The data set is described as follows: luminogenic CYP450 inhibition assay, statement over all five rCYP450s. The source says: The luminescent cytochrome P450 assay was used to determine CYP450-mediated (CYP1A2, 2C9, 2C19, 2D6, and 3A4) metabolism of atractylodin and β-eudesmol. The assay consisted of each recombinant human CYP450 (rCYP450), control membranes lacking P450 activity, a luminogenic CYP450 substrate (luciferin-ME substrate for rCYP1A2, luciferin-H substrate for rCYP2C9, luciferin-H EGE substrate for rCYP2C19, luciferin-ME EGE substrate for rCYP2D6, and luciferin-IPA substrate for rCYP3A4), KPO4 buffer, luciferin free water, NADPH regeneration system, and a luciferin detection reagent. The rCYP450 enzymes were generated from a baculovirus-infected insect cell expression system. The concentrations of the recombinant CYPs used were 0.5 (rCYP1A2 and rCYP2C9), 0.25 (rCYP2C19 and rCYP2D6) or 0.2 (rCYP3A4) pmol (0.5μL) per reaction. […] A luciferin product was produced after adding 25 µL of NADPH Regeneration System (solution A, solution B, and luciferin-free water) and incubated at 37 °C for 10 (rCYP1A2 and rCYP3A4), 20 (rCYP2C19 and rCYP2C9) or 30 (rCYP2D6) minutes. The reaction was stopped and converted to a luminescent signal after adding Luciferin Detection Reagent (50 µL) and incubated at 25 °C for 20 min. The luminescence signals obtained were determined using a Varioskan® Flash microplate reader (Waltham, MA, USA). The magnitude of luminescence in all of the samples represented CYP450 activity. […]

SMILES strings stand for the structures. Where two headings read alike, the source gives them in different places.

rCYP2D6, sequence (P10635 whole entry): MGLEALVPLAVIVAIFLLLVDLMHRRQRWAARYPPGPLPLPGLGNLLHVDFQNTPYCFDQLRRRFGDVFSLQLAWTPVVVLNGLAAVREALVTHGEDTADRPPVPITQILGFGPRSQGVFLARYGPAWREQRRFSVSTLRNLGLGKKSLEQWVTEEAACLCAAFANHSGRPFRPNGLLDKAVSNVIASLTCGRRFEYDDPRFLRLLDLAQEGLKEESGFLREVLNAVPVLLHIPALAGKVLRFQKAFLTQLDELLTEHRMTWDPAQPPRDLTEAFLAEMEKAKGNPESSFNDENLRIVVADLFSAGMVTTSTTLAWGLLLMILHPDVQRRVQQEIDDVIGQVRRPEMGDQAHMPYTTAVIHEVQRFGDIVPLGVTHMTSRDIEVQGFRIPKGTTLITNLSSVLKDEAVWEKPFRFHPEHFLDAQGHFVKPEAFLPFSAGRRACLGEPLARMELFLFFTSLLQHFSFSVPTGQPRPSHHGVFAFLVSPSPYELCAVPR

As to `C=C1CCC[C@]2(C)CC[C@@H](C(C)(C)O)C[C@@H]12` [β-Eudesmol], on rCYP2D6 (Median IC50 (Range) rCYP2D6, median (range)), the IC50 was over 562 µM. The “Protein expression ratio of mCYP3A11” value in the data set on mCYP3A11 (1 day, control 1.73) is 1.50; in the data set on mCYP3A11 (7 days, control 1.57), 1.62; in the data set on mCYP3A11 (14 days, control 2.31, listed as β-eudesmol, 100 mg/kg), “significantly downregulated”; in the data set with mCYP3A11 (14 days, control 2.31, listed as β‐eudesmol, 100 mg/kg) it was 1.60; in the data set with mCYP3A11 (21 days, control 2.18, listed as β-eudesmol, 100 mg/kg), “significantly downregulated”; in the data set on mCYP3A11 (21 days, control 2.18, listed as β‐eudesmol, 100 mg/kg), 1.42. Moreover, the “binding to hCYP1A2” value in the data set on hCYP1A2 is listed as “bound”. Further, in the data set on hCYP3A4, the “binding to hCYP3A4” value is reported as “bound”. Moreover, the “binding to hCYP2C9” value in the data set on hCYP2C9 is “not”. For the same compound, in the data set on hCYP2C19, the “binding to hCYP2C19” value was “not”.

Turning to `C/C=C/C#CC#C/C=C/c1ccco1` [Atractylodin], the “Median IC50 (Range) rCYP2D6” value at rCYP2D6 (median (range)) is over 125 µg/mL. In addition, the IC50 at rCYP2D6 (read-out: Median IC50 (Range) rCYP2D6, median (range)) was over 686 µM. The “inhibitory effects on all rCYP450s (potency class)” value in data set [1] was “weak (weak (IC50 ≥ 50 µM))”. Further, the “Protein expression ratio of mCYP3A11” value in the data set on mCYP3A11 (1 day, control 1.73) is 1.82; in the data set on mCYP3A11 (7 days, control 1.57, 100 mg/kg) it was “significantly downregulated”; in the data set with mCYP3A11 (7 days, control 1.57, listed as Atactylodin, 100 mg/kg), 1.26; in the data set on mCYP3A11 (14 days, control 2.31, 100 mg/kg), “significantly downregulated”; in the data set on mCYP3A11 (14 days, control 2.31, listed as Atactylodin, 100 mg/kg), 1.67; with mCYP3A11 (21 days, control 2.18, 100 mg/kg), “significantly downregulated”. For the same compound, the “Protein expression ratio of mCYP3A11” value in the data set on mCYP3A11 (21 days, control 2.18, listed as Atactylodin, 100 mg/kg) came to 1.41.

A word on the IC50: it is the midpoint of a concentration-inhibition curve.

The values above are taken from paper PMC10095747, “Modulatory Effects of Atractylodin and β-Eudesmol on Human Cytochrome P450 Enzymes: Potential Drug-Drug Interactions” (Molecules, 2023).
